pIC50: −log10 of the molar value.
Biological target: Human TRPA1 (Homo sapiens, UniProt O75762)
Test: Alternative TRPA1 Ca2+ fluorometry assay (hTRPA1/TREx-HEK293 cells, Fluo-4, FDSS 6000)
Assay type: cell-based
Set-up: expressed in transfected cells
Conditions: Fluo-4-AM, agonist 6,11-dihydro-5H-dibenzo[b,e]azepine-10-carboxylic acid methyl ester 25 nM, procedure used for Examples 184, 190 to 192, 194 to 316
Procedure: In alternative embodiments, the assay was performed using the following procedure for Examples 184, 190 to 192, and 194 to 316:
The human TRPA1 gene was cloned into the pT-Rex-Dest30 inducible vector and stably transfected in T-Rex™-293 cells (Invitrogen, Merelbeke, Belgium). This tetracycline inducible hTRPA1 expression system was used in order to prevent CA^2+ overload in the cultured cells due to sustained TRPA1 expression. hTRPA1/TREx-HEK293 cells (referred to as jTRPA1 cells in the following text) were maintained under standard sterile cell culture conditions. The culture medium for the jTRPA1-HEK cells was DMEN (Gibco BRL, Invitrogen, Merelbeke, Belgium) supplemented with 5 g/l gengticin (Gibco), 5 mL/l blasticidin (Invitorgen), 14.6 g/l L-Glutamine (200 mMl; Gibco), 5 g/l penicillin/streptomycin (5.10-6 IU/I, Gibco), 5.5 g/l pyruvic acid (Gibco) and 10% foetal calf serum (Hyclone, Logan Utah, USA).
For Ca^2+ fluorometry experiments, hTRPA1-HEK cells were resuspended in HBSS seeding medium: HBSS (with CaCl2 and MgCl2: Gibco) supplemented with 14.6 g/l L-Glutamine (200 mM; Gibco), 5 g/l penicillin/streptomycin (5.10-6 IU/l. Gibco), 5.5 g/l pyruvic acid (Gibco) and 10% foetal calf serum (heat inactivated for 30 minutes at 56° C.; Hyclone, Logan Utah, USA). The cells were seeded in poly-D-lysine-coated 384-well round bottom polypropylene plates (Costar Corning, Data Packaging, Cambridge Mass., USA) at 12000 cells/well. Fifty ng/ml tetracycline was added to induce the hTRPA1 expression 24 h before the experiment.
The cells were loaded with 5 mg/l Fluo-4-AM (Molecular Probes, Invitorgen, Merelbeke, Belgium) dissolved in HBSS seeding medium supplemented with 0.7 g/l Probenecid (Sigma) and incubated for 1 h at 37° C. and subsequently at 20° C. for 1 to 2 h. The fluorescence was measured in the FDSS 6000 imaging based plate reader (Hamamutsu Photonics K.K., Hamamutsu City, Japan). The excitation wavelength was 488 nm and the emission wavelength 540 nm. After a control period of 12 seconds the inventive compounds were added and the Ca^2+ signal was measured within 14 minutes after application. Finally, a TRPA1 agonist, 6,11-dihydro-5H-dibenzo[b,e]azepine-10-carboxylic acid methyl ester, was added at a final concentration of 25 nM. The emission ratio was calculated by dividing the emission signal (Em540) by the first EM540 signal of the control period to compensate for the background fluorescence. […] For intracellular Ca^2+ measurements, a compound stock solution (10 to 100 mM) was further diluted in DMSO in order to obtain a final 1% DMSO concentration in the extracellular solution.

Human TRPA1, sequence (O75762 whole entry): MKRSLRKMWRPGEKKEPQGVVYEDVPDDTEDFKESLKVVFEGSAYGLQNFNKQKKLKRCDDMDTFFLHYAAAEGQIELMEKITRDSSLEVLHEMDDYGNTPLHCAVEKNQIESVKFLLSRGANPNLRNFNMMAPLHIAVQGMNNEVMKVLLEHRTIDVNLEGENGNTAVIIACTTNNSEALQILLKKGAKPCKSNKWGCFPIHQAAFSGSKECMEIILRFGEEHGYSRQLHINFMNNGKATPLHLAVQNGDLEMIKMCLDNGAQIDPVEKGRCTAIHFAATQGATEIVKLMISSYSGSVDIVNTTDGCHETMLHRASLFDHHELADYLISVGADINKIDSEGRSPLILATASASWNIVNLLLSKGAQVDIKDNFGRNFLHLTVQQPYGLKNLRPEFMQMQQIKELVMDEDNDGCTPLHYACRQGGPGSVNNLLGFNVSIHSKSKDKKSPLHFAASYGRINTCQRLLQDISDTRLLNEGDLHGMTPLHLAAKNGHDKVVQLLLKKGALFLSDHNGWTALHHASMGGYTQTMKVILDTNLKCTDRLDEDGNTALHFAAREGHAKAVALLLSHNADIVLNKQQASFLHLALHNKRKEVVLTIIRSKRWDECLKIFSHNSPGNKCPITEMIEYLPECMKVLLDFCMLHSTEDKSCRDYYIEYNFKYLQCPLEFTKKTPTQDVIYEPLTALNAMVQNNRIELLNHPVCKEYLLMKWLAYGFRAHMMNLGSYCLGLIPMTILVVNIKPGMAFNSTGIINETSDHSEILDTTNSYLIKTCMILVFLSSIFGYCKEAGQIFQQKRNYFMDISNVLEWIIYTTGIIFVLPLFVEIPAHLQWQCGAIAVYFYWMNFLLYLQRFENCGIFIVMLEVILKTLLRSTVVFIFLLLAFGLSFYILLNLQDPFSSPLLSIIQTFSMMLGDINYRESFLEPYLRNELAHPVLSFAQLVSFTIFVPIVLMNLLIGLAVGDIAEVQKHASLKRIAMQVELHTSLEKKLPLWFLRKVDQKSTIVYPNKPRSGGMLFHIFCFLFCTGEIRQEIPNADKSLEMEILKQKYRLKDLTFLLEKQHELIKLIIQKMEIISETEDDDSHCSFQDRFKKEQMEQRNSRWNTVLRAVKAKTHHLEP

O=C(NCc1cc(-c2ccc(F)cc2)nc(N2CCN(c3ccccc3F)CC2)n1)[C@@H]1CCCN1S(=O)(=O)c1ccc(F)cc1 [Example 227, 1-(4-Fluoro-benzenesulfonyl)-pyrrolidine-2S-carboxylic acid {6-(4-fluoro-phenyl)-2-[4-(2-fluoro-phenyl)-piperazin-1-yl]-pyrimidin-4-ylmethyl}-amide]
pIC50: 5.93

COc1cccc(OC)c1-c1cc(CNC(=O)[C@@H]2CCCN2S(=O)(=O)c2ccc(F)cc2)nc(N2CCN(c3ccccc3F)CC2)n1 [Example 228, 1-(4-Fluoro-benzenesulfonyl)-pyrrolidine-2S-carboxylic acid {6-(2,6-dimethoxy-phenyl)-2-[4-(2-fluoro-phenyl)-piperazin-1-yl]-pyrimidin-4-ylmethyl}-amide]
pIC50: 5.64

N#Cc1ccc(-c2cc(CNC(=O)[C@@H]3CCCN3S(=O)(=O)c3ccc(F)cc3)nc(N3CCN(c4ccccc4F)CC3)n2)cc1 [Example 229, 1-(4-Fluoro-benzenesulfonyl)-pyrrolidine-2-carboxylic acid {6-(4-cyano-phenyl)-2-[4-(2-fluoro-phenyl)-piperazin-1-yl]-pyrimidin-4-ylmethyl}-amide]
pIC50: 5.80

COc1ccc(F)cc1-c1cc(CNC(=O)[C@@H]2CCCN2S(=O)(=O)c2ccc(F)cc2)nc(N2CCN(c3ccccc3F)CC2)n1 [Example 230, 1-(4-Fluoro-benzenesulfonyl)-pyrrolidine-2S-carboxylic acid {6-(5-fluoro-2-methoxy-phenyl)-2-[4-(2-fluoro-phenyl)-piperazin-1-yl]-pyrimidin-4-ylmethyl}-amide]
pIC50: 5.89

Cc1ccc(C)c(-c2cc(CNC(=O)[C@@H]3CCCN3S(=O)(=O)c3ccc(F)cc3)nc(N3CCN(c4ccccc4F)CC3)n2)c1 [Example 232, 1-(4-Fluoro-benzenesulfonyl)-pyrrolidine-2S-carboxylic acid {6-(2,5-dimethyl-phenyl)-2-[4-(2-fluoro-phenyl)-piperazin-1-yl]-pyrimidin-4-ylmethyl}-amide]
pIC50: 5.95

O=C(NCc1cc(-c2ccc(F)cc2F)nc(N2CCN(c3ccccc3F)CC2)n1)[C@@H]1CCCN1S(=O)(=O)c1ccc(F)cc1 [Example 233, 1-(4-Fluoro-benzenesulfonyl)-pyrrolidine-2S-carboxylic acid {6-(2,4-difluoro-phenyl)-2-[4-(2-fluoro-phenyl)-piperazin-1-yl]-pyrimidin-4-ylmethyl}-amide]
pIC50: ~6.43

O=C(NCc1cc(-c2cccc(OC(F)(F)F)c2)nc(N2CCN(c3ccccc3F)CC2)n1)[C@@H]1CCCN1S(=O)(=O)c1ccc(F)cc1 [Example 234, 1-(4-Fluoro-benzenesulfonyl)-pyrrolidine-2S-carboxylic acid [2-[4-(2-fluoro-phenyl)-piperazin-1-yl]-6-(3-trifluoromethoxy-phenyl)-pyrimidin-4-ylmethyl]-amide]
pIC50: < 5.00

N#Cc1cccc(-c2cc(CNC(=O)[C@@H]3CCCN3S(=O)(=O)c3ccc(F)cc3)nc(N3CCN(c4ccccc4F)CC3)n2)c1 [Example 235, 1-(4-Fluoro-benzenesulfonyl)-pyrrolidine-2S-carboxylic acid {6-(3-cyano-phenyl)-2-[4-(2-fluoro-phenyl)-piperazin-1-yl]-pyrimidin-4-ylmethyl}-amide]
pIC50: 5.23

Cc1cc(C)cc(-c2cc(CNC(=O)[C@@H]3CCCN3S(=O)(=O)c3ccc(F)cc3)nc(N3CCN(c4ccccc4F)CC3)n2)c1 [Example 236, 1-(4-Fluoro-benzenesulfonyl)-pyrrolidine-2S-carboxylic acid {6-(3,5-dimethyl-phenyl)-2-[4-(2-fluoro-phenyl)-piperazin-1-yl]-pyrimidin-4-ylmethyl}-amide]
pIC50: < 5.00

CN(C)c1cccc(-c2cc(CNC(=O)[C@@H]3CCCN3S(=O)(=O)c3ccc(F)cc3)nc(N3CCN(c4ccccc4F)CC3)n2)c1 [Example 237, 1-(4-Fluoro-benzenesulfonyl)-pyrrolidine-2S-carboxylic acid {6-(3-dimethylamino-phenyl)-2-[4-(2-fluoro-phenyl)-piperazin-1-yl]-pyrimidin-4-ylmethyl}-amide]
pIC50: < 5.00

O=C(NCc1cc(-c2ccc3c(c2)OCO3)nc(N2CCN(c3ccccc3F)CC2)n1)[C@@H]1CCCN1S(=O)(=O)c1ccc(F)cc1 [Example 238, 1-(4-Fluoro-benzenesulfonyl)-pyrrolidine-2S-carboxylic acid {6-benzo[1,3]dioxol-5-yl-2-[4-(2-fluoro-phenyl)-piperazin-1-yl]-pyrimidin-4-ylmethyl}-amide]
pIC50: 5.89

O=C(NCc1cc(-c2cccc(Cl)c2)nc(N2CCN(c3ccccc3F)CC2)n1)[C@@H]1CCCN1S(=O)(=O)c1ccc(F)cc1 [Example 239, 1-(4-Fluoro-benzenesulfonyl)-pyrrolidine-2S-carboxylic acid {6-(3-chloro-phenyl)-2-[4-(2-fluoro-phenyl)-piperazin-1-yl]-pyrimidin-4-ylmethyl}-amide]
pIC50: 5.30

Cc1cccc(C)c1-c1cc(CNC(=O)[C@@H]2CCCN2S(=O)(=O)c2ccc(F)cc2)nc(N2CCN(c3ccccc3F)CC2)n1 [Example 240, 1-(4-Fluoro-benzenesulfonyl)-pyrrolidine-2S-carboxylic acid {6-(2,6-dimethyl-phenyl)-2-[4-(2-fluoro-phenyl)-piperazin-1-yl]-pyrimidin-4-ylmethyl}-amide]
pIC50: ~6.03

O=C(NCc1cc(-c2ccc(Cl)cc2)nc(N2CCN(c3ccccc3F)CC2)n1)[C@@H]1CCCN1S(=O)(=O)c1ccc(F)cc1 [Example 241, 1-(4-Fluoro-benzenesulfonyl)-pyrrolidine-2-carboxylic acid {6-(4-chloro-phenyl)-2-[4-(2-fluoro-phenyl)-piperazin-1-yl]-pyrimidin-4-ylmethyl}-amide]
pIC50: 6.38

O=C(NCc1cc(-c2ccccc2Cl)nc(N2CCN(c3ccccc3F)CC2)n1)[C@@H]1CCCN1S(=O)(=O)c1ccc(F)cc1 [Example 242, 1-(4-Fluoro-benzenesulfonyl)-pyrrolidine-2-carboxylic acid {6-(2-chloro-phenyl)-2-[4-(2-fluoro-phenyl)-piperazin-1-yl]-pyrimidin-4-ylmethyl}-amide]
pIC50: ~5.96

O=C(NCc1cc(-c2cccc(C(F)(F)F)c2)nc(N2CCN(c3ccccc3F)CC2)n1)[C@@H]1CCCN1S(=O)(=O)c1ccc(F)cc1 [Example 243, 1-(4-Fluoro-benzenesulfonyl)-pyrrolidine-2S-carboxylic acid [2-[4-(2-fluoro-phenyl)-piperazin-1-yl]-6-(3-trifluoromethyl-phenyl)-pyrimidin-4-ylmethyl]-amide]
pIC50: 5.42

O=C(NCc1cc(-c2ccc(F)c(Cl)c2)nc(N2CCN(c3ccccc3F)CC2)n1)[C@@H]1CCCN1S(=O)(=O)c1ccc(F)cc1 [Example 244, 1-(4-Fluoro-benzenesulfonyl)-pyrrolidine-2-carboxylic acid {6-(3-chloro-4-fluoro-phenyl)-2-[4-(2-fluoro-phenyl)-piperazin-1-yl]-pyrimidin-4-ylmethyl}-amide]
pIC50: < 5.00

O=C(NCc1cc(-c2ccccc2F)nc(N2CCN(c3ccccc3F)CC2)n1)[C@@H]1CCCN1S(=O)(=O)c1ccc(F)cc1 [Example 245, 1-(4-Fluoro-benzenesulfonyl)-pyrrolidine-2S-carboxylic acid {6-(2-fluoro-phenyl)-2-[4-(2-fluoro-phenyl)-piperazin-1-yl]-pyrimidin-4-ylmethyl}-amide]
pIC50: 5.61

O=C(NCc1cc(-c2cccc(F)c2)nc(N2CCN(c3ccccc3F)CC2)n1)[C@@H]1CCCN1S(=O)(=O)c1ccc(F)cc1 [Example 246, 1-(4-Fluoro-benzenesulfonyl)-pyrrolidine-2S-carboxylic acid {6-(3-fluoro-phenyl)-2-[4-(2-fluoro-phenyl)-piperazin-1-yl]-pyrimidin-4-ylmethyl}-amide]
pIC50: 5.70

Cc1ccccc1-c1cc(CNC(=O)[C@@H]2CCCN2S(=O)(=O)c2ccc(F)cc2)nc(N2CCN(c3ccccc3F)CC2)n1 [Example 247, 1-(4-Fluoro-benzenesulfonyl)-pyrrolidine-2S-carboxylic acid {2-[4-(2-fluoro-phenyl)-piperazin-1-yl]-6-o-tolyl-pyrimidin-4-ylmethyl}-amide]
pIC50: ~5.84
